The source of these data is PubChem BioAssay (NCI).

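Protocol summary: plate cells (96-well), add compound at 5 concentrations, incubate 48 h, interpolate endpoints linearly. TGI: total growth inhibition.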 Bounds are passed on as bounds.

Test systems include UO-31 renal; CCRF-CEM leukemia; NCI/ADR-RES ovarian; PC-3 prostate; HOP-62 NSCLC; SF-539 CNS; HCT-116 colon; A498 renal; NCI-H522 lung; SK-MEL-5 melanoma.
What all share (experiment): NCI anticancer screen, dose series, 48 h

For the compound `C[C@]12CC/C(=N\O)C=C1CC[C@@H]1[C@@H]2CC[C@]2(C)C(=N/O)/C(=C/c3cccnc3)C[C@@H]12`, the TGI was 79.9 µM with UO-31 renal; greater than 100 µM in the assay with CCRF-CEM leukemia; greater than 100 µM in the assay with NCI/ADR-RES ovarian; greater than 100 µM in the assay on PC-3 prostate; 85.5 µM with HOP-62 NSCLC; 82.8 µM in the assay on SF-539 CNS. The TGI is greater than 100 µM with HCT-116 colon, 44.4 µM in the assay on A498 renal and 45.2 µM with NCI-H522 lung.

For `c1ccc2c(c1)CCCN1CCc3ccccc3C21` (stereo unspecified), the TGI in the assay with UO-31 renal is greater than 100 µM; with CCRF-CEM leukemia, greater than 100 µM; in the assay on NCI/ADR-RES ovarian, greater than 100 µM; in the assay with SK-MEL-5 melanoma, 70.9 µM; with PC-3 prostate, greater than 100 µM; in the assay on HOP-62 NSCLC it was greater than 100 µM. The TGI is 46.5 µM with SF-539 CNS, greater than 100 µM with HCT-116 colon, greater than 100 µM in the assay on A498 renal and greater than 100 µM in the assay with NCI-H522 lung.

In the case of `NCCCC(N)C(=O)O` (stereo unspecified), the TGI in the assay with UO-31 renal, with CCRF-CEM leukemia, in the assay on NCI/ADR-RES ovarian, in the assay with SK-MEL-5 melanoma, with PC-3 prostate and in the assay on HOP-62 NSCLC was greater than 100 µM in each case. In addition, the TGI in the assay on HCT-116 colon, in the assay on A498 renal and in the assay with NCI-H522 lung was greater than 100 µM in each case.

In the case of `CCOC(=O)C1C(=O)CC(O)(c2ccccc2)C(C(=O)OCC)C1c1ccc(OC)cc1` (stereo unspecified), the TGI was greater than 100 µM in the assay on UO-31 renal; 79.2 µM in the assay on CCRF-CEM leukemia; greater than 55.9 µM with NCI/ADR-RES ovarian; greater than 100 µM in the assay with SK-MEL-5 melanoma; greater than 96.4 µM with PC-3 prostate; greater than 100 µM in the assay on HOP-62 NSCLC. The TGI with SF-539 CNS is 40.9 µM; in the assay on HCT-116 colon, greater than 47 µM; in the assay with A498 renal, greater than 100 µM; in the assay with NCI-H522 lung, 38.2 µM.

Regarding `CSc1c(C(=O)Nc2ccc(C)cc2)c(N)[nH]c(=O)c1C#N`, the TGI in the assay with UO-31 renal, in the assay on CCRF-CEM leukemia, in the assay on NCI/ADR-RES ovarian, in the assay on SK-MEL-5 melanoma, with PC-3 prostate and in the assay on SF-539 CNS was greater than 100 µM throughout. Also, the TGI in the assay on HCT-116 colon, in the assay on A498 renal and in the assay on NCI-H522 lung was greater than 100 µM in each case.

With `O=C1C(Br)=Cc2c(Cl)sc(Cl)c21`, the TGI was 9.14 µM in the assay with UO-31 renal; greater than 100 µM with CCRF-CEM leukemia; greater than 100 µM with NCI/ADR-RES ovarian; greater than 53.7 µM in the assay on SK-MEL-5 melanoma; 6.83 µM with PC-3 prostate; 28.6 µM with HOP-62 NSCLC. For the same compound, the TGI is 15.1 µM in the assay on SF-539 CNS, 6.25 µM with HCT-116 colon, 52.1 µM in the assay on A498 renal and 11.7 µM with NCI-H522 lung.

Turning to `O=c1nc2c(c(-c3cccc(Cl)c3)[nH]1)COC/C2=C\c1cccc(Cl)c1`, the TGI in the assay on UO-31 renal, with CCRF-CEM leukemia, with NCI/ADR-RES ovarian, in the assay with SK-MEL-5 melanoma, with PC-3 prostate and in the assay on HOP-62 NSCLC was greater than 100 µM in each case. Moreover, the TGI in the assay with SF-539 CNS, with HCT-116 colon, in the assay with A498 renal and with NCI-H522 lung was greater than 100 µM throughout.

For `O=C1NC(=S)NC(=O)C1C(c1ccccc1[N+](=O)[O-])C1C(=O)NC(=S)NC1=O`, the TGI in the assay on UO-31 renal, with CCRF-CEM leukemia, in the assay with NCI/ADR-RES ovarian, with SK-MEL-5 melanoma, in the assay on PC-3 prostate and with HOP-62 NSCLC was greater than 100 µM in each case. For the same compound, the TGI in the assay on HCT-116 colon, with A498 renal and in the assay on NCI-H522 lung was greater than 100 µM in each case.

With `CC(C)c1c(P(=O)(c2ccccc2)c2ccccc2)n(C)c2ccccc12`, the TGI in the assay with UO-31 renal, in the assay on CCRF-CEM leukemia, with NCI/ADR-RES ovarian, in the assay on PC-3 prostate, in the assay on HOP-62 NSCLC and in the assay with SF-539 CNS was greater than 100 µM in each case. Also, the TGI in the assay with HCT-116 colon, in the assay with A498 renal and with NCI-H522 lung was greater than 100 µM each time.

With `CC1=C2c3ccccc3N(C(=O)/C=C/C(=O)O)[C@H]2[C@H]2C(=O)OC(=O)[C@H]2C1`, the TGI in the assay with UO-31 renal, in the assay with CCRF-CEM leukemia, with NCI/ADR-RES ovarian, in the assay with SK-MEL-5 melanoma, in the assay on PC-3 prostate and in the assay with HOP-62 NSCLC was greater than 10 µM in each case. The TGI with SF-539 CNS, in the assay with HCT-116 colon, in the assay on A498 renal and with NCI-H522 lung was greater than 10 µM in each case.

Regarding `N#CSCc1cccc(Nc2cc(=O)[nH]c(=O)[nH]2)c1`, the TGI was greater than 100 µM in the assay with UO-31 renal; greater than 100 µM in the assay on NCI/ADR-RES ovarian; 99.1 µM with SK-MEL-5 melanoma; greater than 100 µM in the assay on PC-3 prostate; greater than 100 µM in the assay with HOP-62 NSCLC; 98.6 µM in the assay with SF-539 CNS. In addition, the TGI with HCT-116 colon, in the assay with A498 renal and in the assay with NCI-H522 lung was greater than 100 µM in each case.

For the compound `COc1cc2c(cc1OC)C(=O)/C(=C/c1cc(C)c(O)c(C)c1)C2`, the TGI in the assay on UO-31 renal, in the assay with CCRF-CEM leukemia, in the assay on NCI/ADR-RES ovarian, in the assay with SK-MEL-5 melanoma, with PC-3 prostate and with HOP-62 NSCLC was greater than 100 µM throughout. Also, the TGI is greater than 100 µM in the assay on SF-539 CNS, greater than 100 µM with A498 renal and greater than 95.9 µM in the assay with NCI-H522 lung.

For `CC(C)/C(Cl)=N\OC(=O)NNc1ccccc1`, the TGI in the assay on CCRF-CEM leukemia is greater than 46.7 µM; with NCI/ADR-RES ovarian it was greater than 100 µM; in the assay with SK-MEL-5 melanoma, greater than 54 µM; with PC-3 prostate it was greater than 100 µM; in the assay with HOP-62 NSCLC, greater than 100 µM; in the assay on SF-539 CNS, greater than 100 µM. Also, the results for the TGI with HCT-116 colon, in the assay on A498 renal and with NCI-H522 lung were greater than 100 µM, greater than 100 µM and 28.7 µM, respectively.

In the case of `O=C(O)CNC(=O)c1ccc([As](=O)(O)O)cc1`, the TGI with UO-31 renal, with CCRF-CEM leukemia, in the assay on NCI/ADR-RES ovarian, with SK-MEL-5 melanoma, with PC-3 prostate and in the assay with HOP-62 NSCLC was greater than 100 µM each time. In addition, the TGI in the assay with HCT-116 colon, in the assay with A498 renal and with NCI-H522 lung was greater than 100 µM each time.
